One series deals with JAK2 (h) (Homo sapiens (Human), UniProt O60674). As to the kind of experiment: JAK2 (h) kinase activity assay. Type of series: biochemical. The protocol:
(§1) The above assay procedure can be used to determine the IC50 for inhibition and/or the inhibition constant, Ki. The IC50 is defined as the concentration of compound required to reduce the enzyme activity by 50% under the condition of the assay. The IC50 value is estimated by preparing a 10 point curve using a ½ log dilution series (for example, a typical curve may be prepared using the following compound concentrations: 3 μM, 1 μM, 0.3 μM, 0.1 μM, 0.03 μM, 0.01 μM, 0.003 μM, 0.001 μM, 0.0003 μM and 0 μM).
JAK2 (h) is incubated with 8 mM MOPS pH 7.0, 0.2 mM EDTA, 100 μM […], 10 mM MgAcetate and [γ-^33P-ATP] (specific activity approx. 500 cpm/pmol, concentration as required). The reaction is initiated by the addition of the MgATP mix. After incubation for 40 minutes at room temperature, the reaction is stopped by the addition of 3% phosphoric acid solution. 10 μL of the reaction is then spotted onto a P30 filtermat and washed three times for 5 minutes in 75 mM phosphoric acid and once in methanol prior to drying and scintillation counting.
(§2) The kinase assays described herein were performed at Millipore UK Ltd, Dundee Technology Park, Dundee DD2 1SW, UK.

Another series concerns the target Aurora-A (h) (Homo sapiens (Human), UniProt O14965). As to the kind of experiment: Aurora-A (h) kinase activity assay. Type of series: biochemical. On the procedure: as §1
Aurora-A (h) is incubated with 8 mM MOPS pH 7.0, 0.2 mM EDTA, 200 μM LRRASLG (Kemptide), 10 mM MgAcetate and [γ-^33P-ATP] (specific activity approx. 500 cpm/pmol, concentration as required). The reaction is initiated by the addition of the MgATP mix. After incubation for 40 minutes at room temperature, the reaction is stopped by the addition of 3% phosphoric acid solution. 10 μL of the reaction is then spotted onto a P30 filtermat and washed three times for 5 minutes in 75 mM phosphoric acid and once in methanol prior to drying and scintillation counting.
as §2

Another series addresses JAK1 (h) (Homo sapiens (Human), UniProt P23458). Kind of series: JAK1 (h) kinase activity assay. Type of series: biochemical. The protocol: as §1
JAK1 (h) is incubated with 20 mM Tris/HCl pH 7.5, 0.2 mM EDTA, 500 μM GEEPLYWSFPAKKK, 10 mM MgAcetate and [γ-^33P-ATP] (specific activity approx. 500 cpm/pmol, concentration as required). The reaction is initiated by the addition of the MgATP mix. After incubation for 40 minutes at room temperature, the reaction is stopped by the addition of 3% phosphoric acid solution. 10 μL of the reaction is then spotted onto a P30 filtermat and washed three times for 5 minutes in 75 mM phosphoric acid and once in methanol prior to drying and scintillation counting.
as §2

Series [1] in a line: Compound stability in rat liver microsomes. The class given is in vitro ADME. Particulars: pH 7.4; for half-life at 5 μM: rat liver microsomes 0.5 mg protein/mL, compound 5 μM, NADPH 1.0 mM, 37° C., read-out: Rat T1/2; for CLint scaled at 5 μM: rat liver microsomes, in vivo CLint extrapolated. The essentials: (§3)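 Microsomes 0.5 mg protein/mL; cpd 5 μM; NADPH 1.0 mM; 100 mM phosphate pH 7.4; DMSO 0.05%; 37° C; duplicates. Timepoints 0–60 min, acetonitrile stop, LC/MS/MS. Data as % of zero-time; CLint extrapolated.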

The nature of series [2]: Compound stability in human liver microsomes. Particulars: pH 7.4; for half-life at 5 μM: human liver microsomes 0.5 mg protein/mL, compound 5 μM, NADPH 1.0 mM, 37° C., read-out: Human T1/2; for CLint scaled at 5 μM: human liver microsomes, in vivo CLint extrapolated. Type of series: in vitro ADME. The essentials: as §3
In the next series the target is Aurora-B (h) (Homo sapiens (Human), UniProt Q96GD4). As to the kind of experiment: Aurora-B (h) kinase activity assay. The class given is biochemical. On the procedure:
as §1
Aurora-B (h) is incubated with 8 mM MOPS pH 7.0, 0.2 mM EDTA, 30 μM AKRRRLSSLRA, 10 mM MgAcetate and [γ-^33PATP] (specific activity approx. 500 cpm/pmol, concentration as required). The reaction is initiated by the addition of the MgATP mix. After incubation for 40 minutes at room temperature, the reaction is stopped by the addition of a 3% phosphoric acid solution. 10 μL of the reaction is then spotted onto a P30 filtermat and washed three times for 5 minutes in 75 mM phosphoric acid and once in methanol prior to drying and scintillation counting.
as §2

Series [3] is described as follows: Pharmacokinetics after intravenous and oral administration in rats. Type of series: in vivo. Particulars: for Clearance (CL) after iv dosing / AUC(0-t) / half-life / Vd: dose 1 mg/kg, iv dosing; for F: oral bioavailability, iv dose 1 mg/kg; for AUC(0-t) / half-life / Vd: rat, plasma; for Vd: read-out: Vss. The gist of the method: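 IV doses generally 0.5, 1 or 2 mg/kg; oral doses in rats generally 0.5, 1, 5 or 10 mg/kg, given as solution, suspension or capsule in various vehicles. Blood sampled over 0.083 or 0.25 h to 24 h; plasma analysed by LC/MS/MS.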

Molecules are shown by their SMILES. Where only a bound is given, the exact number is not on record here.

A word on the IC50: it is the concentration that gives 50% inhibition. Higher therefore signals weaker potency in that assay. As a reminder, the CLint scaled is the capacity of the preparation to metabolise the compound, expressed as a volume cleared per time. By AUC(0-t) is commonly meant the area under the concentration-time curve up to a stated or last time point. Low readings indicate less exposure, high ones more exposure.

Chain of JAK2 (h) (O60674 whole entry): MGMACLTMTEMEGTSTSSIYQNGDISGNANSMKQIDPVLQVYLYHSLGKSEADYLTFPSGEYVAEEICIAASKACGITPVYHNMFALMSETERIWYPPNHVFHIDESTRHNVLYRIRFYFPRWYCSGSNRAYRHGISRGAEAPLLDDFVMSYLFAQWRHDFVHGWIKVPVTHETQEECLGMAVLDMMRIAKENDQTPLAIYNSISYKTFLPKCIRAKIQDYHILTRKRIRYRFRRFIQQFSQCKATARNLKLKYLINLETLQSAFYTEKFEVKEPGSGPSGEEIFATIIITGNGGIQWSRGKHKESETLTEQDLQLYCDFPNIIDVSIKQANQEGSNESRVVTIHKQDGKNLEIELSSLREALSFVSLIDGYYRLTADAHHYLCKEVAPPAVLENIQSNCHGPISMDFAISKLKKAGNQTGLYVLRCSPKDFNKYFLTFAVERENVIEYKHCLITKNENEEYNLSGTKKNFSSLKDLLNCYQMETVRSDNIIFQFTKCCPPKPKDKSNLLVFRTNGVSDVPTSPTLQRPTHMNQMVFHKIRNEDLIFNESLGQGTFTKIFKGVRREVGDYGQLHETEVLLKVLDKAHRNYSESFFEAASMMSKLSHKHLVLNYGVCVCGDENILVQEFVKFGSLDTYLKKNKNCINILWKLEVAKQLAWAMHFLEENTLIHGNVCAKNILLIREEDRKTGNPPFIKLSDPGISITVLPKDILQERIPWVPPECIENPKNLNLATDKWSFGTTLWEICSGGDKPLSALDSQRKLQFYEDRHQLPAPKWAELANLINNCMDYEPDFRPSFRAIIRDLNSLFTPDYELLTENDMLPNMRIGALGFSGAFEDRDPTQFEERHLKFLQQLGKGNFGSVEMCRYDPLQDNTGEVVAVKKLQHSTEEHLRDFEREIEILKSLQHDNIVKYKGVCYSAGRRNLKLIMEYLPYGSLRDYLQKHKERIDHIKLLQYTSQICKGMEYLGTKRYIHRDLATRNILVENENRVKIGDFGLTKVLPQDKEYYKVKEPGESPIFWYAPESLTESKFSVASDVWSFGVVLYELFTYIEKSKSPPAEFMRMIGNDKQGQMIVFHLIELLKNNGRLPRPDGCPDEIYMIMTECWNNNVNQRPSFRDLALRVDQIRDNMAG
Chain of JAK1 (h) (P23458 whole entry): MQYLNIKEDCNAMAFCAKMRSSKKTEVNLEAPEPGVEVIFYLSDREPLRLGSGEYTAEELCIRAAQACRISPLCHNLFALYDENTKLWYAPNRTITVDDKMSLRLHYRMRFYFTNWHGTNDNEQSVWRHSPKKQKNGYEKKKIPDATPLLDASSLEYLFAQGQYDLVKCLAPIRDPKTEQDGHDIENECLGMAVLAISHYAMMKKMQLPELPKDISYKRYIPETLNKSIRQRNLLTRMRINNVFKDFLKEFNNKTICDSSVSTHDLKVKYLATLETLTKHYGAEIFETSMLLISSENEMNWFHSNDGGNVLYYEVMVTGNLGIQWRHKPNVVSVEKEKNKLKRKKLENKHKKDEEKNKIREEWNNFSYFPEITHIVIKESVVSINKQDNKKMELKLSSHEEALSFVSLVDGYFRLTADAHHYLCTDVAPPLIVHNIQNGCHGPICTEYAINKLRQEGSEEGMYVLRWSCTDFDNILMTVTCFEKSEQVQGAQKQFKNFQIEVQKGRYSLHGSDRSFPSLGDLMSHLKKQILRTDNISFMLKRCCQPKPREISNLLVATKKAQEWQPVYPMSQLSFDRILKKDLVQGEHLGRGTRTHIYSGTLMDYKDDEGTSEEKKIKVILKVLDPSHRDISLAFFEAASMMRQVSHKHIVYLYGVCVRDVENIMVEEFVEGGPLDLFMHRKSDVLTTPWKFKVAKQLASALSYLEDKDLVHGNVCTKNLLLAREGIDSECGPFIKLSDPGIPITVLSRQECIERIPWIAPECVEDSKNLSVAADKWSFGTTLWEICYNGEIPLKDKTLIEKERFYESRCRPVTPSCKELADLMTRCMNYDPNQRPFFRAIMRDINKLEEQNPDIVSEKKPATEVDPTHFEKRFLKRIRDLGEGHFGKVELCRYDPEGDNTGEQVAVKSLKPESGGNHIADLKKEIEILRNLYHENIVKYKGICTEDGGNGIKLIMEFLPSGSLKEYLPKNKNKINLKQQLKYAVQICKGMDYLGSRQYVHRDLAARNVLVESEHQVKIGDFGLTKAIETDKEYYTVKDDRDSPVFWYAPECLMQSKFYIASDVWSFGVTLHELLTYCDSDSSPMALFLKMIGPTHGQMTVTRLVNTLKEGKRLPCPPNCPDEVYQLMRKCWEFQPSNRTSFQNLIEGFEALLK
Chain of Aurora-B (h) (Q96GD4 whole entry): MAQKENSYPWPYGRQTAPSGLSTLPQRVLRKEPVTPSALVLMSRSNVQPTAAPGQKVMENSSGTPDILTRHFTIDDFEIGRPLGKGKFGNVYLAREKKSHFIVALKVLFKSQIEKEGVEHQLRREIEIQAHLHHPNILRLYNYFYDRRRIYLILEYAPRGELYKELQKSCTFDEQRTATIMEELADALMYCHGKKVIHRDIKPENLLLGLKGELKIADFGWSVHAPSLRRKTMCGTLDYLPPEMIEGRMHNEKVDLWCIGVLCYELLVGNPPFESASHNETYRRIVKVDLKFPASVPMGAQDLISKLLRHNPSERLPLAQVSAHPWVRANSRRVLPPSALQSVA
Chain of Aurora-A (h) (O14965 whole entry): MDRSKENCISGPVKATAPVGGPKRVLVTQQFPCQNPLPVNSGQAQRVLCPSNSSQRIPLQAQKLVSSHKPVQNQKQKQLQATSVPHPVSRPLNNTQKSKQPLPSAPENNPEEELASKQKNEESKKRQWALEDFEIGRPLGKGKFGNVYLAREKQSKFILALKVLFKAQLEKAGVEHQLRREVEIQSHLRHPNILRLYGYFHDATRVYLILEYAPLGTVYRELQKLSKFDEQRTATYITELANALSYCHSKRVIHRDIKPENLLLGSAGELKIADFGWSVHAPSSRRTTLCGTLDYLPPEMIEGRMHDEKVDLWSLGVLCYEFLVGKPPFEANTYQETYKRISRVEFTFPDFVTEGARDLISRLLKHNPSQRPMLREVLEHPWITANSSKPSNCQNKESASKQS

As to `N#CCC(=O)N1CC2CC(Nc3nc(Nc4cnn(-c5ccccn5)c4)ncc3Cl)CC2C1` (centres unmarked) [Ex. 7, 3-(5-((5-chloro-2-((1-(pyridin-2-yl)-1H-pyrazol-4-yl)amino)pyrimidin-4-yl)amino)hexahydrocyclopenta[c]pyrrol-2(1H)-yl)-3-oxopropanenitrile], the IC50 came out at 20 nM against JAK2 (h), 8 nM at Aurora-A (h) and 0.6 nM at JAK1 (h).
With `COc1ccc(-n2cc(Nc3ncc(Cl)c(NC4CC5CN(C(=O)CC#N)CC5C4)n3)cn2)cn1` (centres unmarked) [Ex. 10, 3-(5-((5-chloro-2-((1-(6-methoxypyridin-3-yl)-1H-pyrazol-4-yl)amino)pyrimidin-4-yl)amino)hexahydrocyclopenta[c]pyrrol-2(1H)-yl)-3-oxopropanenitrile], the IC50 at JAK2 (h) was 16 nM; against Aurora-A (h) it was 4 nM; on JAK1 (h) it was less than 0.3 nM.
Consider `Cn1cc(Nc2ncc(Cl)c(NC3CC4CN(C(=O)NC5CC5)CC4C3)n2)cn1` (centres unmarked) [Ex. 19, 5-((5-chloro-2-((1-methyl-1H-pyrazol-4-yl)amino)pyrimidin-4-yl)amino)-N-cyclopropylhexahydrocyclopenta[c]pyrrole-2(1H)-carboxamide], for which, in series [1], the half-life at 5 μM is 96.9 min and the CLint scaled at 5 μM is 25.6 mL/min/kg. Further, in series [2], the half-life at 5 μM was 178 min and the CLint scaled at 5 μM was 9.78 mL/min/kg. At Aurora-B (h), this molecule showed an IC50 of 1 nM. At Aurora-A (h), the midpoint of inhibition, the IC50, lay at 8 nM. Also, in series [3], the “Clearance (CL) after iv dosing” value worked out at 63.7 mL/min/kg, the F amounted to 24.0%, the AUC(0-t) is 263 ng·h/mL and the half-life is 21 min. Also, the Vd in series [3] was found to be 0.95 L/kg. The IC50 on JAK1 (h) amounted to 23 nM.
For `CCNS(=O)(=O)N1CC2CC(Nc3nc(Nc4cnn(C)c4)ncc3Cl)CC2C1` (centres unmarked) [Ex. 24, 5-((5-chloro-2-((1-methyl-1H-pyrazol-4-yl)amino)pyrimidin-4-yl)amino)-N-ethylhexahydrocyclopenta[c]pyrrole-2(1H)-sulfonamide], in series [1], the half-life at 5 μM was found to be 9.3 min and the CLint scaled at 5 μM was 267 mL/min/kg. Moreover, in series [2], the half-life at 5 μM is 34 min and the CLint scaled at 5 μM was 51.2 mL/min/kg. The molecule further registered a concentration for half-maximal inhibition (IC50) against Aurora-B (h) of 0.7 nM. The molecule also registered an IC50 against Aurora-A (h) of 3 nM. Moreover, in series [3], the “Clearance (CL) after iv dosing” value amounted to 75.8 mL/min/kg, the F was 31.9%, the AUC(0-t) worked out at 231 ng·h/mL and the half-life was 24 min. The Vd in series [3] came to 2.02 L/kg. At JAK1 (h), this molecule displayed an IC50 of 2 nM.
Consider `Cn1cc(Nc2ncc(Cl)c(NC3CC4CN(S(=O)(=O)NC5CC5)CC4C3)n2)cn1` (centres unmarked) [Ex. 34, 5-((5-chloro-2-((1-methyl-1H-pyrazol-4-yl)amino)pyrimidin-4-yl)amino)-N-cyclopropylhexahydrocyclopenta[c]pyrrole-2(1H)-sulfonamide], for which, in series [1], the half-life at 5 μM was found to be 17.8 min and the CLint scaled at 5 μM was 140 mL/min/kg. For the same molecule, in series [2], the half-life at 5 μM came to 35.7 min and the CLint scaled at 5 μM is 48.6 mL/min/kg. Half-maximal inhibition against Aurora-B (h) (IC50) was put at 0.8 nM. 1 nM corresponded to half-maximal inhibition at Aurora-A (h) (IC50). In addition, in series [3], the “Clearance (CL) after iv dosing” value came to 48.8 mL/min/kg, the F is listed as 54.0%, the AUC(0-t) was 348 ng·h/mL and the half-life was 17.4 min. For the same molecule, the Vd in series [3] amounted to 1.18 L/kg. Moreover, the IC50 against JAK1 (h) is 3 nM.
In the case of `CC(C)(O)Cn1cc(Nc2ncc(Cl)c(NC3CCC4(CC3)CCN(S(C)(=O)=O)CC4)n2)cn1` [Ex. 37, 1-(4-((5-chloro-4-((3-(methylsulfonyl)-3-azaspiro[5.5]undecan-9-yl)amino)pyrimidin-2-yl)amino)-1H-pyrazol-1-yl)-2-methylpropan-2-ol], the IC50 on JAK2 (h) turned out to be 131 nM. In addition, in series [1], the half-life at 5 μM came out at 70.5 min and the CLint scaled at 5 μM was 35.2 mL/min/kg. Also, in series [2], the half-life at 5 μM is 54.3 min and the CLint scaled at 5 μM was 32 mL/min/kg. For the same molecule, on Aurora-A (h), the IC50 is 71 nM. Besides, in series [3], the “Clearance (CL) after iv dosing” value is 29.3 mL/min/kg, the F was 53.6%, the AUC(0-t) is 604 ng·h/mL and the half-life is 75 min. Moreover, the Vd in series [3] came out at 2.61 L/kg. Besides, half-maximal inhibition against JAK1 (h) (IC50) was put at 2 nM.
As for `CC(O)Cn1cc(Nc2ncc(Cl)c(NC3CC4CN(S(C)(=O)=O)CC4C3)n2)cn1` (centres unmarked) [Ex. 38, 1-(4-((5-chloro-4-((2-(methylsulfonyl)octahydrocyclopenta[c]pyrrol-5-yl)amino)pyrimidin-2-yl)amino)-1H-pyrazol-1-yl)propan-2-ol], in series [1], the half-life at 5 μM was determined as 45.5 min and the CLint scaled at 5 μM was 54.6 mL/min/kg. Moreover, in series [2], the half-life at 5 μM stood at 67.1 min and the CLint scaled at 5 μM is 25.9 mL/min/kg. The IC50 on Aurora-B (h) worked out at 1 nM. Further, half-maximal inhibition on Aurora-A (h) (IC50) was put at 0.8 nM. Also, in series [3], the “Clearance (CL) after iv dosing” value was 62.8 mL/min/kg, the F is 35.3%, the AUC(0-t) was determined as 270 ng·h/mL and the half-life is 25.2 min. For the same molecule, the Vd in series [3] turned out to be 1.65 L/kg. In addition, half-maximal inhibition against JAK1 (h) (IC50) required 1 nM.
Consider `CC(C)(O)Cn1cc(Nc2ncc(Cl)c(NC3CC4CN(S(C)(=O)=O)CC4C3)n2)cn1` (centres unmarked) [Ex. 39, 1-(4-((5-chloro-4-((2-(methylsulfonyl)octahydrocyclopenta[c]pyrrol-5-yl)amino)pyrimidin-2-yl)amino)-1H-pyrazol-1-yl)-2-methylpropan-2-ol], for which, in series [1], the half-life at 5 μM was 39.2 min and the CLint scaled at 5 μM is 63.3 mL/min/kg. In addition, in series [2], the half-life at 5 μM worked out at 49.6 min and the CLint scaled at 5 μM was 35 mL/min/kg. Also, at Aurora-B (h), half-maximal inhibition (IC50) required 1 nM. In addition, at Aurora-A (h), the IC50 stood at 2 nM. In series [3], the “Clearance (CL) after iv dosing” value was determined as 96 mL/min/kg, the F was found to be 40.5%, the AUC(0-t) came to 295 ng·h/mL and the half-life is 38.4 min. Besides, in series [3], the Vd came out at 1.88 L/kg. Moreover, half-maximal inhibition on JAK1 (h) (IC50) was put at 2 nM.
In turn, `CC(O)Cn1cc(Nc2ncc(Cl)c(NC3CC4CN(S(=O)(=O)CC5CC5)CC4C3)n2)cn1` (centres unmarked) [Ex. 46, 1-(4-((5-chloro-4-((2-((cyclopropylmethyl)sulfonyl)octahydrocyclopenta[c]pyrrol-5-yl)amino)pyrimidin-2-yl)amino)-1H-pyrazol-1-yl)propan-2-ol] had an IC50 on Aurora-B (h) of 1 nM. For the same molecule, the IC50 at Aurora-A (h) was 10 nM. Moreover, in series [3], the “Clearance (CL) after iv dosing” value came out at 60.7 mL/min/kg, the F is listed as 24.9%, the AUC(0-t) is 277 ng·h/mL and the half-life is 15.6 min. Also, the Vd in series [3] came out at 1.13 L/kg.
The molecule `CC(O)Cn1cc(Nc2ncc(Cl)c(NC3CC4CN(S(=O)(=O)NC5CC5)CC4C3)n2)cn1` (centres unmarked) [Ex. 47, 5-((5-chloro-2-((1-(2-hydroxypropyl)-1H-pyrazol-4-yl)amino)pyrimidin-4-yl)amino)-N-cyclopropylhexahydrocyclopenta[c]pyrrole-2(1H)-sulfonamide] yielded an IC50 against Aurora-B (h) of 0.6 nM. The IC50 against Aurora-A (h) was 7 nM. In series [3], the “Clearance (CL) after iv dosing” value amounted to 69.3 mL/min/kg, the F is reported as 22.4%, the AUC(0-t) was 239 ng·h/mL and the half-life was 42.6 min. Also, the Vd in series [3] amounted to 2.37 L/kg.

The values are drawn from patent US9938257B2 (Sunshine Lake Pharma Co., Ltd., priority 2015, dated 2018).
